Laboratory results: US10131679B2, “Substituted dihydropyrrolopyrazole compound” (UBE INDUSTRIES, LTD., priority 2014, dated 2018)

What was measured:
[1] = test system: mouse imiquimod-induced psoriasis model; assay: Ear thickening suppression test using mouse imiquimod-induced psoriasis model; assay type: in vivo; conditions: topical, 120 h, application of a 0.01% methanol solution for 4 days, thickness measured on day 5, BALB/c mice, read-out: rate of inhibition of increase in right auricle thickness
Experimental: Ear Thickening Suppression Test Using Mouse Imiquimod-Induced Psoriasis Model
An imiquimod-induced psoriasis model test was carried out by modifying the method of Leslie van der Fits et al. (J. Immunol. 182, 5836 (2009)). BALB/c mice were used (female, supplied by Charles River Laboratories Japan, Inc.) as laboratory animals. On the start day of the test, the thicknesses of the right auricles of the mice were measured with a thickness gauge (model SMD-565J manufactured by TECLOCK Corp.). A test compound solution or only a solvent was applied or orally administered, and after 60 minutes, 5 mg of imiquimod (Beselna Cream 5% manufactured by Mochida Pharmaceutical Co., Ltd.) was applied to the insides of the right auricles. The test compound solution or solvent administration and the imiquimod application were carried out for 4 days, and the thicknesses of the right auricles were measured again on day 5. When increase in the thicknesses of the right auricles of the solvent-administered group on day 5 was defined as 100%, the rate of inhibition of increase (%) at each dose of the test compound was calculated.

[2] = target: T1, PAK4 (Homo sapiens, UniProt O96013); assay: PAK4 enzyme inhibition test; assay type: biochemical; conditions: Ki=IC50/(1+S/Km); 33P bound to MBP, [γ-33P]ATP, 30° C. for 20 minutes; read-out: Ki value of PAK4 inhibitory activity
T1 construct: purchased Invitrogen Corp. PV4212
T1 sequence (O96013 whole entry): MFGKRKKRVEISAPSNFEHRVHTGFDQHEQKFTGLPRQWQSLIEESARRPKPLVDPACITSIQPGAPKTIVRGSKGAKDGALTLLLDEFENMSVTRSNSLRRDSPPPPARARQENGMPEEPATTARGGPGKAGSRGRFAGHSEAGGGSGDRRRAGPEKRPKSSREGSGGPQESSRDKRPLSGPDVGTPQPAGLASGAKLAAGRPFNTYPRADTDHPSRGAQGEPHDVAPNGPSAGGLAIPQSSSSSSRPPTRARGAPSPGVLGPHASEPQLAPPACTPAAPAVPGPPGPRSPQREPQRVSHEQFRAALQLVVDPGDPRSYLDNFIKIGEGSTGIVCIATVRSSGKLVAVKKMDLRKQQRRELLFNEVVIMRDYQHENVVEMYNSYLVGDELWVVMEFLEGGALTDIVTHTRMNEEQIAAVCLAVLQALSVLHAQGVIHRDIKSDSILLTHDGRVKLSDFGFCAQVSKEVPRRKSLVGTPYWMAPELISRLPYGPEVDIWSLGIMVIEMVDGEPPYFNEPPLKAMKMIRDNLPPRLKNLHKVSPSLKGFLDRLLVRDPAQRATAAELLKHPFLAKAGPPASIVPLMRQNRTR
Experimental: PAK4 Enzyme Inhibition Test
The preparation of a buffer solution was performed by mixing a trishydroxyaminomethane buffer solution (Tris buffer solution) (pH 7.5), DTT, Triton X-100, MgCl2, ethylene glycol bis(β-aminoethyl ether)-N,N,N′,N′-tetraacetic acid (EGTA), (3-glycerol phosphate, and sodium orthovanadate(V). A 40 μM [γ-^33P]ATP solution was used by diluting a 10 mM ATP solution and a commercially available [γ-^33P]ATP solution (manufactured by PerkinElmer, Inc., Code No. NEG-302H) with the buffer solution. A PAK4 solution was used by diluting commercially available PAK4 (manufactured by Invitrogen Corp., Catalog No. PV4212) with the buffer solution. A substrate solution was used by diluting MBP with the buffer solution. As for the preparation of a reaction solution, the buffer solution, the 40 μM [γ-^33P]ATP solution, the PAK4 solution, and the substrate solution were mixed at 4° C. to obtain a reaction solution.
PAK4 enzyme reaction was performed by adding 5 μL of a test compound solution prepared with 10% DMSO/90% injectable distilled water, and 45 μL of the reaction solution in a 1.5 mL microtube at 4° C. and reacting in the microtube at 30° C. for 20 minutes in a water bath incubator. After the reaction, a 10% aqueous TCA solution was added to each microtube while cooled to 4° C., and mixed to terminate the reaction. The resultant was left standing at 4° C. for 10 minutes and then centrifuged in a centrifuge, and the supernatant was discarded. Next, a 2% aqueous TCA solution was added, mixed, and then centrifuged in a centrifuge, and the supernatant was discarded. This washing operation was performed twice. After the washing, precipitates were dissolved in a 1 N aqueous NaOH solution, and the radioactivity was measured with a liquid scintillation counter.
The calculation of the inhibitory activity of the test compound against PAK4 was performed as a test compound concentration inhibiting 50% of the amount of ^33P bound to MBP (IC50 value) by using EXSUS (version 8.0.0 or version 8.0.1, manufactured by CAC Exicare Corp.).
The calculation of a Ki value was performed according to the following calculation expression. S means the concentration of ATP contained in the reaction solution, and Km means a Michaelis-Menten constant. Ki=IC50/(1+S/Km)

[3] = target: T2, CDK2 (Homo sapiens, UniProt P24941); assay: CDK2 enzyme inhibition test; assay type: biochemical; conditions: Ki=IC50/(1+S/Km); 33P bound to MBP, [γ-33P]ATP, 30° C. for 20 minutes; read-out: Ki value of CDK2 inhibitory activity
T2 construct: purchased Invitrogen Corp. PV3267
How it was run: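 Commercial CDK2 with MBP substrate and [γ-33P]ATP (500 μM solution, before mixing) in HEPES pH 7.4 buffer with DTT, Triton X-100 and MgCl2; 20 min at 30 °C. TCA-precipitated 33P-MBP counted by liquid scintillation; IC50 from inhibition of 33P incorporation, Ki = IC50/(1+S/Km).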

SMILES	inhibition in vivo at 0.01 % [1] [%]	Ki [2] [µM]	Ki [3] [µM]
CO[C@@H](C(=O)N1Cc2c(NC(=O)C3([Si](C)(C)C)CCC3)n[nH]c2C1(C)C)c1ccccc1 [IV-1175, (R)—N-[5-(2-Methoxy-2-phenylacetyl)-6,6-dimethyl-1,4,5,6-tetrahydropyrrolo[3,4-c]pyrazol-3-yl]-1-(trimethylsilyl)cyclobutanecarboxamide]	≥ 50		
CC(C)(CO)C(NC(=O)N1Cc2c(NC(=O)C3([Si](C)(C)C)CCC3)n[nH]c2C1(C)C)c1ccccc1 (racemic) [IV-354, N-(3-Hydroxy-2,2-dimethyl-1-phenylpropyl)-6,6-dimethyl-3-[1-(trimethylsilyl)cyclobutanecarboxamido]-4,6-dihydropyrrolo[3,4-c]pyrazole-5(1H)-carboxamide]	≥ 50		
CC1(C)c2[nH]nc(NC(=O)C3([Si](C)(C)C)CCC3)c2CN1C(=O)N[C@H](CCCCO)c1ccccc1 [IV-291, (R)—N-(5-Hydroxy-1-phenylpentyl)-6,6-dimethyl-3-[1-(trimethylsilyl)cyclobutanecarboxamido]-4,6-dihydropyrrolo[3,4-c]pyrazole-5(1H)-carboxamide]		≥ 0.5	≥ 1
CC[Si](C)(C)C1(C(=O)Nc2n[nH]c3c2CN(C(=O)[C@H](OC)c2ccccc2)C3(C)C)CCC1 [IV-1178, (R)-1-(Ethyldimethylsilyl)-N-[5-(2-methoxy-2-phenylacetyl)-6,6-dimethyl-1,4,5,6-tetrahydropyrrolo[3,4-c]pyrazol-3-yl] cyclobutanecarboxamide]	≥ 50		
CC1(C)c2[nH]nc(NC(=O)C3([Si](C)(C)C)CCC3)c2CN1C(=O)NCCO [IV-438, N-(2-Hydroxyethyl)-6,6-dimethyl-3-[1-(trimethylsilyl)cyclobutanecarboxamido]-4,6-dihydropyrrolo[3,4-c]pyrazole-5(1H)-carboxamide]		≥ 0.5	≥ 1
CC1(C)c2[nH]nc(NC(=O)C3([Si](C)(C)C)CCC3)c2CN1C(=O)C(CO)c1ccccc1 (stereo not drawn) [IV-632, N-[5-(3-Hydroxy-2-phenylpropanoyl)-6,6-dimethyl-1,4,5,6-tetrahydropyrrolo[3,4-c]pyrazol-3-yl]-1-(trimethylsilyl)cyclobutanecarboxamide]		≥ 0.5	≥ 1
CC1(C)c2[nH]nc(NC(=O)C3([Si](C)(C)C)CC3)c2CN1C(=O)N[C@H](CO)c1ccccc1 [III-114, (S)—N-(2-Hydroxy-1-phenylethyl)-6,6-dimethyl-3-[1-(trimethylsilyl)cyclopropanecarboxamido]-4,6-dihydropyrrolo[3,4-c]pyrazole-5(1H)-carboxamide]		≥ 0.5	≥ 1
CC1(C)c2[nH]nc(NC(=O)C3([Si](C)(C)C)CCC3)c2CN1C(=O)[C@H](OC(F)F)c1ccccc1 [IV-1180, (R)—N-{5-[2-(Difluoromethoxy)-2-phenylacetyl]-6,6-dimethyl-1,4,5,6-tetrahydropyrrolo[3,4-c]pyrazol-3-yl}-1-(trimethylsilyl)cyclobutanecarboxamide]	≥ 50		
CC[Si](C)(C)C1(C(=O)Nc2n[nH]c3c2CN(C(=O)N[C@H](CO)c2ccccc2)C3(C)C)CCC1 [IV-117, (S)-3-[1-(Ethyldimethylsilyl)cyclobutanecarboxamido]-N-(2-hydroxy-1-phenylethyl)-6,6-dimethyl-4,6-dihydropyrrolo[3,4-c]pyrazole-5(1H)-carboxamide]		≥ 0.5	≥ 1
CN(C(=O)N1Cc2c(NC(=O)C3([Si](C)(C)C)CCC3)n[nH]c2C1(C)C)[C@H](CO)c1ccccc1 [IV-119, (S)—N-(2-Hydroxy-1-phenylethyl)-N,6,6-trimethyl-3-[1-(trimethylsilyl)cyclobutanecarboxamido]-4,6-dihydropyrrolo[3,4-c]pyrazole-5(1H)-carboxamide]		≥ 0.5	≥ 1
CCO[C@@H](C(=O)N1Cc2c(NC(=O)C3([Si](C)(C)C)CCC3)n[nH]c2C1(C)C)c1ccccc1 [IV-1188, (R)—N-[5-(2-Ethoxy-2-phenylacetyl)-6,6-dimethyl-1,4,5,6-tetrahydropyrrolo[3,4-c]pyrazol-3-yl]-1-(trimethylsilyl)cyclobutanecarboxamide]	≥ 50		
CC(C)[C@@H](CO)NC(=O)N1Cc2c(NC(=O)C3([Si](C)(C)C)CCC3)n[nH]c2C1(C)C [IV-475, (S)—N-(1-Hydroxy-3-methylbutan-2-yl)-6,6-dimethyl-3-[1-(trimethylsilyl)cyclobutanecarboxamido]-4,6-dihydropyrrolo[3,4-c]pyrazole-5(1H)-carboxamide]		≥ 0.5	≥ 1
CC1(C)c2[nH]nc(NC(=O)C3([Si](C)(C)C)CCC3)c2CN1C(=O)N[C@H](CCCO)c1ccccc1 [IV-283, (R)—N-(4-Hydroxy-1-phenylbutyl)-6,6-dimethyl-3-[1-(trimethylsilyl)cyclobutanecarboxamido]-4,6-dihydropyrrolo[3,4-c]pyrazole-5(1H)-carboxamide]		≥ 0.5	≥ 1
CC(C)(O)[C@@H](NC(=O)N1Cc2c(NC(=O)C3([Si](C)(C)C)CCC3)n[nH]c2C1(C)C)c1ccccc1 [IV-171, (S)—N-(2-Hydroxy-2-methyl-1-phenylpropyl)-6,6-dimethyl-3-[1-(trimethylsilyl)cyclobutanecarboxamido]-4,6-dihydropyrrolo[3,4-c]pyrazole-5(1H)-carboxamide]		≥ 0.5	≥ 1
C[C@@H](CO)NC(=O)N1Cc2c(NC(=O)C3([Si](C)(C)C)CCC3)n[nH]c2C1(C)C [IV-455, (S)—N-(1-Hydroxypropan-2-yl)-6,6-dimethyl-3-[1-(trimethylsilyl)cyclobutanecarboxamido]-4,6-dihydropyrrolo[3,4-c]pyrazole-5(1H)-carboxamide]		≥ 0.5	≥ 1
CC1(C)c2[nH]nc(NC(=O)C3([Si](C)(C)C)CCC3)c2CN1C(=O)N[C@H](CO)C1CCCCC1 [IV-495, (S)—N-(1-Cyclohexyl-2-hydroxyethyl)-6,6-dimethyl-3-[1-(trimethylsilyl)cyclobutanecarboxamido]-4,6-dihydropyrrolo[3,4-c]pyrazole-5(1H)-carboxamide]		≥ 0.5	≥ 1
CC1(C)c2[nH]nc(NC(=O)C3([Si](C)(C)C)CCC3)c2CN1C(=O)O[C@H](CO)c1ccccc1 [IV-2, (S)-2-Hydroxy-1-phenylethyl 6,6-dimethyl-3-[1-(trimethylsilyl)cyclobutanecarboxamido]-4,6-dihydropyrrolo[3,4-c]pyrazole-5(1H)-carboxylate]		≥ 0.5	≥ 1
CC1(C)c2[nH]nc(NC(=O)C3([Si](C)(C)C)CCC3)c2CN1C(=O)NCC(O)c1ccccc1 (stereo not drawn) [IV-450, N-(2-Hydroxy-2-phenylethyl)-6,6-dimethyl-3-[1-(trimethylsilyl)cyclobutanecarboxamido]-4,6-dihydropyrrolo[3,4-c]pyrazole-5(1H)-carboxamide]		≥ 0.5	≥ 1
CC1(C)c2[nH]nc(NC(=O)C(C)(C)[Si](C)(C)C)c2CN1C(=O)N[C@H](CO)c1ccccc1 [II-114, (S)—N-(2-Hydroxy-1-phenylethyl)-6,6-dimethyl-3-[2-methyl-2-(trimethylsilyl)propanamido]-4,6-dihydropyrrolo[3,4-c]pyrazole-5(1H)-carboxamide]		≥ 0.5	≥ 1
